Experimental data as given in patent US4175081A, “5-Substituted thiadiazole ureas” (priority 1977, dated 1979).

Experiments:
[1] = test system: Crabgrass (CG); assay: Pre-emergence herbicide test; assay type: in vivo, Digitaria sanquinalis; conditions: Digitaria sanguinalis, pre-emergence, 336 h, two weeks after treatment; for pest or weed control at 4483.4 g/ha: 4 lb/acre
Method in brief: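 Crabgrass (Digitaria sanquinalis) was surface seeded in 3' plastic pots of potting soil, covered with screened soil, and watered by sub-irrigation in greenhouse trays. Pots were seeded one day before spraying in a hood with a moving belt and fixed nozzle. Plants stayed in the greenhouse on sub-irrigation, and pre-emergence control was rated visually two weeks after treatment.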

[2] = test system: Yellow foxtail grass (YF); assay: Pre-emergence herbicide test; assay type: in vivo, Setaria glauca; conditions: Setaria, 336 h, two weeks after treatment; for pest or weed control at 4483.4 g/ha: 4 lb/acre
Method in brief: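 Seeds surface-sown in potting soil one day before spraying; compounds applied pre-emergence at 8 or 4 lbs/acre in 38 gallons/acre spray. Pots held in greenhouse with sub-irrigation only. Injury or control rated visually two weeks after treatment.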

[3] = test system: Johnson grass (JG); assay: Pre-emergence herbicide test; assay type: in vivo, Sorgum helepense; conditions: Sorghum halepense, 336 h, two weeks after treatment; for pest or weed control at 4483.4 g/ha: 4 lb/acre
Method in brief: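 Pots seeded one day before spraying; compound applied pre-emergence at 8 lbs/acre (or 4 lbs/acre) in 38 gallons/acre spray volume. Sub-irrigated in greenhouse; injury/control rated visually two weeks after treatment.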

[4] = test system: Barnyard grass (BG); assay: Pre-emergence herbicide test; assay type: in vivo; conditions: Echinochloa crus-galli, 336 h, two weeks after treatment; for pest or weed control at 4483.4 g/ha: 4 lb/acre
Method in brief: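 Barnyard grass surface-seeded in potting soil and sprayed pre-emergence one day after seeding, at 8 or 4 lb compound/acre in 38 gal/acre spray volume. Pots kept in greenhouse with sub-irrigation only; injury or control rated visually two weeks after treatment.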

[5] = test system: Amaranth pigweed (PW); assay: Pre-emergence herbicide test; assay type: in vivo, Amaranthus retroflexus; conditions: 336 h, two weeks after treatment; for pest or weed control at 4483.4 g/ha: 4 lb/acre
Method in brief: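 Pigweed was surface-seeded in potted soil one day before spraying at 8 lbs compound per acre, or 4 lbs/acre, in 38 gallons per acre. Pots were kept in the greenhouse with sub-irrigation only; injury or control was rated visually two weeks after treatment.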

[6] = test system: Turnip (TP); assay: Pre-emergence herbicide test; assay type: in vivo, Brassica sp.; conditions: Brassica rapa, pre-emergence, 336 h, two weeks after treatment; for pest or weed control at 4483.4 g/ha: 4 lb/acre
Method in brief: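 Turnip (Brassica sp.) seeds were surface sown in 3' plastic pots of potting soil, covered with a thin layer of screened soil, and sub-irrigated in greenhouse trays. Pots were seeded one day ahead of treatment, sprayed pre-emergence under a hood with a fixed nozzle and moving belt, then kept in the greenhouse.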

[7] = test system: Cotton (CT); assay: Pre-emergence herbicide test; assay type: in vivo, Gossypium hirsutum var. DPL smooth leaf; conditions: Gossypium hirsutum, 336 h, two weeks after treatment; for pest or weed control at 4483.4 g/ha: 4 lb/acre
Method in brief: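 Crop and weed species seeded one day before treatment, then sprayed pre-emergence at 8 lbs actual compound per acre (also 4 lbs/acre formulations) in 38 gallons per acre. Pots kept in greenhouse with sub-irrigation only; injury or control visually rated two weeks after treatment.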

[8] = test system: Corn (CN); assay: Pre-emergence herbicide test; assay type: in vivo; conditions: Zea mays, 336 h, two weeks after treatment; for pest or weed control at 4483.4 g/ha: 4 lb/acre
Method in brief: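 Four corn seeds per pot, sown at seed-diameter depth one day before spraying, got soil surface treatment at 8 lbs/acre (4 lbs/acre formulations also prepared) in 38 gallons/acre. Pots were greenhouse-held with sub-irrigation only. Injury or control was scored visually two weeks after treatment.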

[9] = test system: Bean (BN); assay: Pre-emergence herbicide test; assay type: in vivo, Phaseolus vulgaris var. Black Valentine; conditions: Phaseolus vulgaris, 336 h, two weeks after treatment; for pest or weed control at 4483.4 g/ha: 4 lb/acre
Method in brief: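 Black Valentine bean was seeded in potting soil one day before spraying. Compound was applied pre-emergence at 8 lbs/acre (also 4 lbs/acre) in 38 gallons per acre. Plants were sub-irrigated and injury or control was rated visually after two weeks.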

[10] = test system: Crabgrass (CG); assay: Post-emergence herbicide test; assay type: in vivo, Digitaria sanquinalis; conditions: Digitaria sanguinalis, post-emergence, 336 h, two weeks after treatment; for pest or weed control at 4483.4 g/ha: 4 lb/acre
Method in brief: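 Crabgrass (Digitaria sanquinalis) was surface seeded individually in 3' plastic pots of potting soil, covered with screened soil, and watered by sub-irrigation in greenhouse trays. Planting was staggered so seedlings reached the target stage together. Post-emergence sprays were applied in a hood with a removable belt and fixed nozzle, and control was visually rated two weeks after treatment.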

[11] = test system: Yellow foxtail grass (YF); assay: Post-emergence herbicide test; assay type: in vivo, Setaria glauca; conditions: Setaria, 336 h, two weeks after treatment; for pest or weed control at 4483.4 g/ha: 4 lb/acre
Method in brief: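 Potted seedlings grown in greenhouse, planting staggered to reach the target stage together, then sprayed post-emergence at 8 lbs actual compound/acre in 38 gallons/acre (4 lbs/acre formulations also prepared). Sub-irrigated afterwards. Injury or control rated visually two weeks after treatment.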

[12] = test system: Johnson grass (JG); assay: Post-emergence herbicide test; assay type: in vivo, Sorgum helepense; conditions: Sorghum halepense, 336 h, two weeks after treatment; for pest or weed control at 4483.4 g/ha: 4 lb/acre
Method in brief: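 Greenhouse pot-grown seedlings sprayed post-emergence at 8 lbs compound per acre (some at 4 lbs/acre) in 38 gallons per acre spray volume. Sub-irrigated thereafter. Injury/control rated visually two weeks after treatment.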

[13] = test system: Barnyard grass (BG); assay: Post-emergence herbicide test; assay type: in vivo; conditions: Echinochloa crus-galli, 336 h, two weeks after treatment; for pest or weed control at 4483.4 g/ha: 4 lb/acre
Method in brief: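 Greenhouse pot-grown barnyard grass seedlings sprayed post-emergence at 8 lbs active compound per acre (some at 4 lbs/acre) in 38 gallons per acre, then sub-irrigated. Injury or control rated visually two weeks after treatment.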

[14] = test system: Amaranth pigweed (PW); assay: Post-emergence herbicide test; assay type: in vivo, Amaranthus retroflexus; conditions: 336 h, two weeks after treatment; for pest or weed control at 4483.4 g/ha: 4 lb/acre
Method in brief: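 Pot-grown pigweed was sprayed post-emergence at the 1–2 true-leaf stage with compound at rates equivalent to 8 lbs per acre (formulations also prepared for 4 lbs/acre) in 38 gallons per acre, using a hood with fixed nozzle. Plants were sub-irrigated in the greenhouse, and injury or control was rated visually two weeks after treatment.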

[15] = test system: Turnip (TP); assay: Post-emergence herbicide test; assay type: in vivo, Brassica sp.; conditions: Brassica rapa, post-emergence, 336 h, two weeks after treatment; for pest or weed control at 4483.4 g/ha: 4 lb/acre
Method in brief: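 A greenhouse post-emergence herbicide test on turnip. Seeds were sown on the surface of potting soil in 3' plastic pots, lightly covered with screened soil and watered from below. Planting was timed so seedlings had 1 or 2 true leaves above the cotyledons at spraying, done in a hood with a fixed nozzle. Control or injury was scored by eye after two weeks.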

[16] = test system: Cotton (CT); assay: Post-emergence herbicide test; assay type: in vivo, Gossypium hirsutum var. DPL smooth leaf; conditions: Gossypium hirsutum, post-emergence, 336 h, two weeks after treatment; for pest or weed control at 4483.4 g/ha: 4 lb/acre
Method in brief: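 Cotton (Gossypium hirsutum var. DPL smooth leaf) was grown in 3' plastic pots of potting soil, four seeds per pot, planted at a depth equal to the seed diameter and watered by sub-irrigation. At the stage of expanded cotyledons with the first true leaf 1' long, plants were sprayed post-emergence in a hood with a fixed nozzle over a moving belt. Percent control was rated visually two weeks later.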

[17] = test system: Corn (CN); assay: Post-emergence herbicide test; assay type: in vivo; conditions: Zea mays, 336 h, two weeks after treatment; for pest or weed control at 4483.4 g/ha: 4 lb/acre
Method in brief: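 Greenhouse seedlings grown in potting soil and sprayed post-emergence at 8 lbs compound/acre (formulations also made for 4 lbs/acre) in 38 gallons/acre spray volume. Watering by sub-irrigation only. Injury or control rated visually two weeks after treatment.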

[18] = test system: Bean (BN); assay: Post-emergence herbicide test; assay type: in vivo, Phaseolus vulgaris var. Black Valentine; conditions: Phaseolus vulgaris, post-emergence, 336 h, two weeks after treatment; for pest or weed control at 4483.4 g/ha: 4 lb/acre
Method in brief: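 Snapbean (Phaseolus vulgaris var. Black Valentine) was tested post-emergence. Four seeds were sown in 3' plastic pots of potting soil at a depth equal to the seed diameter, then sub-irrigated in greenhouse trays. Planting dates were staggered so plants were sprayed once primary leaves had expanded, with the growing point at the primary leaf nodes.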

Question: Which results are given for `CNC(=O)N(C)c1nnc(C(C)(C)C)s1` [Example 42]?
Answer: pest or weed control ([1]; 2 lb/acre): 90%; pest or weed control at 4483.4 g/ha [1]: 90%; pest or weed control at 8966.8 g/ha ([1]; 8 lb/acre): 90%; pest or weed control at 2241.7 g/ha ([2]; 2 lb/acre): 90%; pest or weed control at 4483.4 g/ha [2]: 80%; pest or weed control at 8966.8 g/ha ([2]; 8 lb/acre): 90%; pest or weed control at 2241.7 g/ha ([3]; 2 lb/acre): 70%; pest or weed control at 4483.4 g/ha [3]: 90%; pest or weed control at 8966.8 g/ha ([3]; 8 lb/acre): 100%; pest or weed control at 2241.7 g/ha ([4]; 2 lb/acre): 80%; pest or weed control at 4483.4 g/ha [4]: 90%; pest or weed control at 8966.8 g/ha ([4]; 8 lb/acre): 90%; pest or weed control at 2241.7 g/ha ([5]; 2 lb/acre): 100%; pest or weed control at 4483.4 g/ha [5]: 100%; pest or weed control at 8966.8 g/ha ([5]; 8 lb/acre): 100%; pest or weed control at 2241.7 g/ha ([6]; 2 lb/acre): 100%; pest or weed control at 4483.4 g/ha [6]: 90%; pest or weed control at 8966.8 g/ha ([6]; 8 lb/acre): 100%; pest or weed control at 2241.7 g/ha ([7]; 2 lb/acre): 30%; pest or weed control at 4483.4 g/ha [7]: 70%; pest or weed control at 8966.8 g/ha ([7]; 8 lb/acre): 90%; pest or weed control at 2241.7 g/ha ([8]; 2 lb/acre): 0%; pest or weed control at 4483.4 g/ha [8]: 60%; pest or weed control at 8966.8 g/ha ([8]; 8 lb/acre): 90%; pest or weed control at 2241.7 g/ha ([9]; 2 lb/acre): 40%; pest or weed control at 4483.4 g/ha [9]: 90%; pest or weed control at 8966.8 g/ha ([9]; 8 lb/acre): 100%; pest or weed control ([10]; 2 lb/acre): 40%; pest or weed control at 4483.4 g/ha [10]: 70%; pest or weed control at 8966.8 g/ha ([10]; 8 lb/acre): 100%; pest or weed control ([11]; 2 lb/acre): 90%; pest or weed control at 4483.4 g/ha [11]: 90%; pest or weed control at 8966.8 g/ha ([11]; 8 lb/acre): 100%; pest or weed control ([12]; 2 lb/acre): 70%; pest or weed control at 4483.4 g/ha [12]: 90%; pest or weed control at 8966.8 g/ha ([12]; 8 lb/acre): 100%; pest or weed control at 2241.7 g/ha ([13]; 2 lb/acre): 90%; pest or weed control at 4483.4 g/ha [13]: 90%; pest or weed control at 8966.8 g/ha ([13]; 8 lb/acre): 100%; pest or weed control at 2241.7 g/ha ([14]; 2 lb/acre): 100%; pest or weed control at 4483.4 g/ha [14]: 100%; pest or weed control at 8966.8 g/ha ([14]; 8 lb/acre): 100%; pest or weed control at 2241.7 g/ha ([15]; 2 lb/acre): 100%; pest or weed control at 4483.4 g/ha [15]: 100%; pest or weed control at 8966.8 g/ha ([15]; 8 lb/acre): 100%; pest or weed control at 2241.7 g/ha ([16]; 2 lb/acre): 100%; pest or weed control at 4483.4 g/ha [16]: 100%; pest or weed control at 8966.8 g/ha ([16]; 8 lb/acre): 100%; pest or weed control ([17]; 2 lb/acre): 70%; pest or weed control at 4483.4 g/ha [17]: 70%; pest or weed control at 8966.8 g/ha ([17]; 8 lb/acre): 100%; pest or weed control at 2241.7 g/ha ([18]; 2 lb/acre): 80%; pest or weed control at 4483.4 g/ha [18]: 100%; pest or weed control at 8966.8 g/ha ([18]; 8 lb/acre): 100%

Question: With `CN(C)C(=O)N(C)c1nnc(C(C)(C)C)s1` [Example 43] as the molecule, how does the pest or weed control at 4483.4 g/ha [1] read?
Answer: 100%

Question: What about the pest or weed control at 4483.4 g/ha [2] of the same molecule?
Answer: 100%

Question: What about the pest or weed control at 4483.4 g/ha [3] of the same molecule?
Answer: 90%

Question: And the pest or weed control at 4483.4 g/ha [4]?
Answer: 100%

Question: What about the pest or weed control at 4483.4 g/ha [5] of the same molecule?
Answer: 100%

Question: And the pest or weed control at 4483.4 g/ha [6]?
Answer: 100%

Question: What about the pest or weed control at 4483.4 g/ha [7] of the same molecule?
Answer: 90%

Question: What about the pest or weed control at 4483.4 g/ha [8] of the same molecule?
Answer: 90%

Question: What about the pest or weed control at 4483.4 g/ha [9] of the same molecule?
Answer: 90%

Question: What about the pest or weed control at 4483.4 g/ha [10] of the same molecule?
Answer: 100%

Question: What about the pest or weed control at 4483.4 g/ha [11] of the same molecule?
Answer: 100%

Question: What about the pest or weed control at 4483.4 g/ha [12] of the same molecule?
Answer: 100%

Question: And the pest or weed control at 4483.4 g/ha [13]?
Answer: 100%

Question: What about the pest or weed control at 4483.4 g/ha [14] of the same molecule?
Answer: 100%

Question: And the pest or weed control at 4483.4 g/ha [15]?
Answer: 100%

Question: What about the pest or weed control at 4483.4 g/ha [16] of the same molecule?
Answer: 100%

Question: And the pest or weed control at 4483.4 g/ha [17]?
Answer: 100%

Question: What about the pest or weed control at 4483.4 g/ha [18] of the same molecule?
Answer: 100%
